Test results from the supplement of paper PMC10307832.

Legend:
Experiment in all cases: relative viability (nuclei count vs DMSO), 5 days (fraction); higher = more cells survive
Tosedostat + Linsitinib = compound: CC(C)C[C@@H](C(=O)N[C@H](C(=O)OC1CCCC1)c1ccccc1)[C@H](O)C(=O)NO [Tosedostat] + C[C@]1(O)C[C@@H](c2nc(-c3ccc4ccc(-c5ccccc5)nc4c3)c3c(N)nccn32)C1 [Linsitinib] (partner 1 µM)
Procedure, shortened: (§1)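 Each reported value is a median over duplicate plates. It expresses relative viability: treated-well nuclei count divided by vehicle-well nuclei count. Lung cancer cell lines in 1536-well plates were dosed by pin tool a day after seeding, alone with one drug or with a fixed anchor-drug dose plus five library-drug doses (not always all listed) in √10 steps, and nuclei were counted after 5 days.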

[1] = compound: CC1=NN=C(O1)C2=NN=C(C=C2)N3CCC(CC3)OC4=C(C=CC(=C4)F)Cl + Cc1nc(Nc2ncc(C(=O)Nc3c(C)cccc3Cl)s2)cc(N2CCN(CCO)CC2)n1 [Dasatinib] (partner 0.075 µM)
Procedure, shortened: as §1

Tosedostat + Bortezomib = compound: CC(C)C[C@@H](C(=O)N[C@H](C(=O)OC1CCCC1)c1ccccc1)[C@H](O)C(=O)NO [Tosedostat] + CC(C)C[C@H](NC(=O)[C@H](Cc1ccccc1)NC(=O)c1cnccn1)B(O)O [Bortezomib] (partner 0.002 µM)
Procedure, shortened: as §1

[2] = compound: CC1=NN=C(O1)C2=NN=C(C=C2)N3CCC(CC3)OC4=C(C=CC(=C4)F)Cl + CC(=O)c1c(C)c2cnc(Nc3ccc(N4CCNCC4)cn3)nc2n(C2CCCC2)c1=O [Palbociclib] (partner 0.5 µM)
Procedure, shortened: as §1

Cell Line | relative viability (Tosedostat + Linsitinib; first compound 0.02 µM) | relative viability (Tosedostat + Linsitinib; first compound 0.06325 µM) | relative viability (Tosedostat + Linsitinib; first compound 0.2 µM) | relative viability (Tosedostat + Linsitinib; first compound 0.6325 µM) | relative viability (Tosedostat + Linsitinib; first compound 2 µM) | relative viability ([1]; first compound 0.253 µM) | relative viability ([1]; first compound 0.8 µM) | relative viability ([1]; first compound 2.53 µM) | relative viability ([1]; first compound 8 µM) | relative viability (Tosedostat + Bortezomib; first compound 0.02 µM) | relative viability (Tosedostat + Bortezomib; first compound 0.06325 µM) | relative viability (Tosedostat + Bortezomib; first compound 0.2 µM) | relative viability (Tosedostat + Bortezomib; first compound 0.6325 µM) | relative viability (Tosedostat + Bortezomib; first compound 2 µM) | relative viability ([2]; first compound 0.253 µM) | relative viability ([2]; first compound 0.8 µM) | relative viability ([2]; first compound 2.53 µM) | relative viability ([2]; first compound 8 µM)
201T | 0.99 | 1.09 | 1.11 | 1.21 | 1.17 | 0.38 | 0.45 | 0.409 | 0.433 | 1.1 | 1.08 | 1.14 | 1.14 | 1.21 | 0.219 | 0.251 | 0.221 | 0.21
A549 | 0.663 | 0.621 | 0.562 | 0.532 | 0.608 |  |  |  |  |  |  |  |  |  |  |  |  | 
A-427 | 1.14 | 1.12 | 1.03 | 1.07 | 1.09 | 0.654 |  | 0.669 | 0.63 | 1.02 | 0.916 | 1.06 | 1.01 | 0.879 | 0.567 | 0.566 | 0.584 | 0.564
ABC-1 | 0.95 | 0.868 | 0.854 | 0.773 | 0.626 | 0.457 | 0.32 | 0.318 | 0.361 | 0.289 | 0.344 | 0.328 | 0.274 | 0.306 | 0.411 | 0.271 | 0.287 | 0.28
BEN | 0.986 | 0.921 | 0.989 | 1.14 | 1.06 | 0.375 | 0.508 | 0.321 | 0.24 | 0.973 | 1.08 | 0.827 | 0.908 | 0.728 | 0.452 | 0.448 | 0.487 | 0.52
CAL-12T | 0.728 | 0.762 | 0.739 | 0.709 | 0.642 | 0.315 | 0.34 | 0.374 | 0.228 | 0.987 | 0.897 | 0.966 | 0.85 | 0.549 | 0.441 | 0.485 | 0.43 | 0.336
COR-L23 | 1.1 | 0.805 | 0.827 | 0.869 | 0.877 | 0.438 | 0.375 | 0.39 | 0.343 | 1.22 | 0.918 | 0.914 | 0.969 | 1.1 | 0.27 | 0.24 | 0.241 | 0.247
COR-L 105 | 0.841 | 0.876 | 0.778 | 0.662 | 0.653 | 0.329 | 0.346 | 0.413 | 0.489 | 0.733 | 0.605 | 0.807 | 0.781 | 0.542 | 0.403 | 0.477 | 0.405 | 0.495
Calu-6 | 0.979 | 0.942 | 0.907 | 0.848 | 0.647 |  |  |  |  | 1.13 | 0.932 | 0.943 | 0.851 | 0.666 |  |  |  | 
ChaGo-K-1 |  |  |  |  |  | 0.604 | 0.531 | 0.654 | 0.352 | 1.15 | 1.03 | 0.938 | 0.962 | 0.78 | 0.625 | 0.502 | 0.57 | 0.553
EBC-1 | 0.843 | 0.808 | 0.977 | 0.581 | 0.585 |  |  |  |  | 0.538 | 0.516 | 0.505 | 0.405 | 0.334 |  |  |  | 
EKVX | 0.935 | 1.01 | 1.03 | 0.932 | 1.08 | 0.513 | 0.464 | 0.436 | 0.532 | 0.974 | 0.995 | 1.03 | 0.946 | 0.823 | 0.282 | 0.257 | 0.286 | 0.292
EMC-BAC-2 | 0.822 | 0.792 | 0.794 | 0.837 | 0.82 | 0.319 | 0.324 | 0.362 | 0.422 | 1.13 | 1 | 1.07 | 0.944 | 0.985 | 0.492 | 0.513 | 0.502 | 0.513
EPLC-272H | 1.06 | 1.25 | 0.92 | 0.855 | 0.712 | 0.35 | 0.277 | 0.404 | 0.302 | 1.14 | 0.826 | 0.738 | 0.67 | 0.574 | 0.281 | 0.314 | 0.277 | 0.34
H3255 | 0.94 | 0.949 | 0.917 | 0.984 | 0.988 | 0.316 | 0.434 | 0.404 | 0.338 | 0.883 | 0.927 | 0.86 | 0.621 | 0.648 | 0.296 | 0.305 | 0.309 | 0.321
HARA | 0.915 | 0.8 | 0.876 | 0.969 | 0.857 | 0.271 | 0.248 | 0.247 | 0.235 | 1.16 | 1.08 | 1.1 | 1.1 | 0.942 | 0.233 | 0.25 | 0.235 | 0.222
HCC-15 | 0.826 | 0.876 | 0.848 | 0.831 | 0.672 | 0.497 | 0.453 | 0.499 | 0.472 | 1.19 | 0.98 | 0.956 | 0.869 | 0.998 | 0.427 | 0.392 | 0.414 | 0.418
HCC-44 | 0.59 | 0.656 | 0.688 | 0.681 | 0.473 |  |  |  |  | 0.886 | 0.883 | 0.937 | 0.793 | 0.459 | 0.366 | 0.434 | 0.412 | 0.355
HCC-78 | 0.397 | 0.608 | 0.429 | 0.458 | 0.573 | 0.413 | 0.302 | 0.341 | 0.244 | 0.496 | 0.497 | 0.473 | 0.555 | 0.563 | 0.454 | 0.366 | 0.473 | 0.457
HCC-366 | 0.59 | 0.77 | 0.721 | 0.457 | 0.602 | 0.292 | 0.375 | 0.471 | 0.361 | 1.05 | 1.03 | 1.03 | 1.07 | 1.04 | 0.063 | 0.124 | 0.132 | 0.112
